This is an account of results in article PMC11550483 (2024).

The test addresses SARS2 M^pro (Severe acute respiratory syndrome coronavirus 2, UniProt P0DTD1, P3395H). The format is biochemical, SARS-CoV-2.
In the case of `CCOCCCNC(=O)c1ccc(Cl)c([N+](=O)[O-])c1` [MWAC-0001781, CCOCCCNC(=O)c1ccc(Cl)c(c1)[N+](=O)[O-]], the “% inhibition (20 µM) biochemical” value is 0%.
On the same count and under the same terms, next, `CCOC(=O)c1ccc(NC(=O)N2CCc3ccccc32)cc1` [MWAC-0001787, CCOC(=O)c1ccc(NC(=O)N2CCc3ccccc23)cc1]: 3.21%; `CCOC(=O)c1ccc(NC(=O)CSc2nnc(-c3ccccc3OCC)o2)cc1` [MWAC-0001774, CCOC(=O)c1ccc(NC(=O)CSc2oc(nn2)c3ccccc3OCC)cc1]: 5.5%; `Cc1cc(I)cnc1NC(=S)NC(=O)c1ccco1` [MWAC-0001789, Cc1cc(I)cnc1NC(=S)NC(=O)c2occc2]: 2.41%.
On to `CCCCOC(=O)c1c(C)oc2ccc(NS(=O)(=O)c3ccc(OC)cc3)cc12` [MWAC-0001742, CCCCOC(=O)c1c(C)oc2ccc(NS(=O)(=O)c3ccc(OC)cc3)cc12], for which the “% inhibition (20 µM) biochemical” value was 11%.
Regarding `Cc1ccccc1OCCOc1ccccc1/C=N/n1cnnc1` [MWAC-0001810, Cc1ccccc1OCCOc2ccccc2\C=N\n3cnnc3], the “% inhibition (20 µM) biochemical” value was found to be 5%.
For the compound `O=C(C[S+]([O-])c1ccc(C(F)(F)F)cc1[N+](=O)[O-])OCc1ccccc1` (stereo not shown) [MWAC-0001780, [O-][N+](=O)c1cc(ccc1S(=O)CC(=O)OCc2ccccc2)C(F)(F)F], the “% inhibition (20 µM) biochemical” value amounted to 4%.
As to `Cc1cccc(OCCNC(=O)C(C)Cl)c1` (stereo not shown), the “M^pro inhibition activity (in words)” value was “lost all activity”.
Turning to `Cc1ccc(NC(=S)Nc2ccccc2)nc1` [MWAC-0001820, Cc1ccc(NC(=S)Nc2ccccc2)nc1], the “% inhibition (20 µM) biochemical” value is on record as 2.27%.
Same read-out and setting: to `CCCN1C(=O)C(O)(CC(=O)c2cc(OC)ccc2OC)c2cc(Br)ccc21` (stereo not shown) [MWAC-0001752, CCCN1C(=O)C(O)(CC(=O)c2cc(OC)ccc2OC)c3cc(Br)ccc13] belongs 33%; to `CCc1cc2c3c(c1)C1(C(=O)N3C(C)(C)C=C2C)C(C#N)=C(N)Oc2[nH]c(=O)[nH]c(=O)c21` (stereo not shown) [MWAC-0001786, CCc1cc2C(=CC(C)(C)N3C(=O)C4(C(=C(N)OC5=C4C(=O)NC(=O)N5)C#N)c(c1)c23)C], 4%.
On the same count and under the same terms, to `Cc1ccc2nc(NC(=O)c3ccc(S(C)(=O)=O)c([N+](=O)[O-])c3)sc2c1` [MWAC-0001829, Cc1ccc2nc(NC(=O)c3ccc(c(c3)[N+](=O)[O-])S(=O)(=O)C)sc2c1] belongs 64%.
Same read-out and setting: to `CCN1C(=O)C(O)(CC(=O)c2ccco2)c2cc(Br)ccc21` (stereo not shown) [MWAC-0001784, CCN1C(=O)C(O)(CC(=O)c2occc2)c3cc(Br)ccc13] belongs 3%; to `CCOc1ccccc1N1CCN(C(=O)c2ccc(Cl)c([N+](=O)[O-])c2)CC1` [MWAC-0001782, CCOc1ccccc1N2CCN(CC2)C(=O)c3ccc(Cl)c(c3)[N+](=O)[O-]], 0.51%; to `O=S(=O)(O)CCCN1/C(=C/C=C2\CCC(/C=C/c3sc4ccccc4[n+]3CCCS(=O)(=O)O)=C2N(c2ccccc2)c2ccccc2)Sc2ccccc21` [MWAC-0001204, OS(=O)(=O)CCCN1\C(=C\C=C\2/CCC(=C2N(c3ccccc3)c4ccccc4)\C=C\c5sc6ccccc6[n+]5CCCS(=O)(=O)O)\Sc7ccccc17], 8%.
Regarding `CC(C)(C)N1C(=O)c2ccc(C(=O)Nc3cccc(O)c3)cc2C1=O` [MWAC-0001722, CC(C)(C)N1C(=O)c2ccc(cc2C1=O)C(=O)Nc3cccc(O)c3], the “% inhibition (20 µM) biochemical” value was 5.66%.
Consider `COc1ccc(C=O)cc1OS(=O)(=O)c1ccc(C)cc1` [MWAC-0001771, COc1ccc(C=O)cc1OS(=O)(=O)c2ccc(C)cc2], for which the “% inhibition (20 µM) biochemical” value is 3.71%.
On to `COc1ccc(C(=O)Nc2ccccc2N)cc1` [MWAC-0001806, COc1ccc(cc1)C(=O)Nc2ccccc2N], for which the “% inhibition (20 µM) biochemical” value worked out at 1%.
Take `Cc1ccc2nc(N3C(=O)C(O)=C(C(=O)c4ccco4)C3c3ccco3)sc2c1` (stereo not shown) [MWAC-0001821, Cc1ccc2nc(sc2c1)N3C(C(=C(O)C3=O)C(=O)c4occc4)c5occc5]: the “% inhibition (20 µM) biochemical” value is 16%.
